What was measured:
[1] = target: Fibroblast growth factor receptor 1 (Homo sapiens) (UniProt P11362); experiment: FGFR1 SGC Tm panel (DSF); conditions: for ΔTm: Compound concentration 10.0 uM
[2] = target: G protein-coupled receptor kinase 5 (Homo sapiens) (UniProt P34947); experiment: GPRK5 SGC Tm panel (DSF); conditions: for ΔTm: Compound concentration 10.0 uM
[3] = target: Ephrin type-A receptor 4 (Homo sapiens) (UniProt P54764); experiment: EPHA4 SGC Tm panel (DSF); conditions: for ΔTm: Compound concentration 10.0 uM
Ephrin type-A receptor 4 (Homo sapiens), sequence (P54764 whole entry): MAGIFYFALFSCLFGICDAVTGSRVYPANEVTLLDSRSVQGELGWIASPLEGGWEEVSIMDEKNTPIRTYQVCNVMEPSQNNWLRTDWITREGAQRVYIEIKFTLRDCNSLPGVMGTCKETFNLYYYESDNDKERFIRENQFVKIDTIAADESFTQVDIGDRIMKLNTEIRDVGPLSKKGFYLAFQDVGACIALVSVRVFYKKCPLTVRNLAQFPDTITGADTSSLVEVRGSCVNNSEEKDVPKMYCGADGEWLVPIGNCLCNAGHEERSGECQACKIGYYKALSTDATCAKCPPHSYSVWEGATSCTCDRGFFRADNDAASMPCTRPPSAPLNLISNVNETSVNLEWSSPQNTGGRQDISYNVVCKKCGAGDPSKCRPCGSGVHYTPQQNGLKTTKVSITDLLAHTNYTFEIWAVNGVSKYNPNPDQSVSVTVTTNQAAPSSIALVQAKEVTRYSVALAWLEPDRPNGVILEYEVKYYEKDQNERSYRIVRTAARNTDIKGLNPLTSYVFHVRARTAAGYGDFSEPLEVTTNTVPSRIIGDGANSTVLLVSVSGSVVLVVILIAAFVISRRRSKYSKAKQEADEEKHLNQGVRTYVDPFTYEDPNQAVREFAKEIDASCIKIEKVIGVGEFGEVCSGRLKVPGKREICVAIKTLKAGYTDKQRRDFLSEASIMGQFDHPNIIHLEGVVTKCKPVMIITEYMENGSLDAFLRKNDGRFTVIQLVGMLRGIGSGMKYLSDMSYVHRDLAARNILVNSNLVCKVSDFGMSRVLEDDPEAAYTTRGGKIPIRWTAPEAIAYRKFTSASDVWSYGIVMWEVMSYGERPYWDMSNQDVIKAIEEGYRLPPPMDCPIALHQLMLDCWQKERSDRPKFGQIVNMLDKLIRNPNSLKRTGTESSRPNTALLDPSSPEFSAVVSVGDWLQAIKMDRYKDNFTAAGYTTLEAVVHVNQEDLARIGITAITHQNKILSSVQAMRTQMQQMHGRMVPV

[4] = target: Tyrosine-protein kinase ABL1 (Homo sapiens) (UniProt P00519); experiment: ABL1 SGC Tm panel (DSF); conditions: for ΔTm: Compound concentration 10.0 uM
[5] = target: T1, Dual specificity tyrosine-phosphorylation-regulated kinase 2 (Homo sapiens) (UniProt Q92630); experiment: DYRK2 SGC Tm panel (DSF); conditions: for ΔTm: Compound concentration 10.0 uM
T1 sequence (whole entry): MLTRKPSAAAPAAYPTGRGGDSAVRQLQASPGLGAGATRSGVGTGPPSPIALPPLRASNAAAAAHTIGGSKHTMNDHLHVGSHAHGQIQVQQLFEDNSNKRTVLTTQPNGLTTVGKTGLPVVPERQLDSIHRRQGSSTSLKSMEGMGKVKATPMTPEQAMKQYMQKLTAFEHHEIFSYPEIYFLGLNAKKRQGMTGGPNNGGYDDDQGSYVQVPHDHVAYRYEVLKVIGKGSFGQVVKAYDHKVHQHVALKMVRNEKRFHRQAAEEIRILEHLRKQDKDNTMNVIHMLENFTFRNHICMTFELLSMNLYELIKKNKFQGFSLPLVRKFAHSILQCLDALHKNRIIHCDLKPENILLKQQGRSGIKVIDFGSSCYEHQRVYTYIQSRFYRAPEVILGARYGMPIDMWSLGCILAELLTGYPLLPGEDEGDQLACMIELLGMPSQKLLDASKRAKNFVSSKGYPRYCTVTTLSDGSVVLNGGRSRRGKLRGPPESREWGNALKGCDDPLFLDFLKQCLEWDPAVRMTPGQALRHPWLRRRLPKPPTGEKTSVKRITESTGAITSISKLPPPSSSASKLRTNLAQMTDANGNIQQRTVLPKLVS

[6] = target: Calcium/calmodulin-dependent protein kinase type II subunit delta (Homo sapiens) (UniProt Q13557); experiment: CAMK2D SGC Tm panel (DSF); conditions: for ΔTm: Compound concentration 10.0 uM
Calcium/calmodulin-dependent protein kinase type II subunit delta (Homo sapiens), sequence (Q13557 whole entry): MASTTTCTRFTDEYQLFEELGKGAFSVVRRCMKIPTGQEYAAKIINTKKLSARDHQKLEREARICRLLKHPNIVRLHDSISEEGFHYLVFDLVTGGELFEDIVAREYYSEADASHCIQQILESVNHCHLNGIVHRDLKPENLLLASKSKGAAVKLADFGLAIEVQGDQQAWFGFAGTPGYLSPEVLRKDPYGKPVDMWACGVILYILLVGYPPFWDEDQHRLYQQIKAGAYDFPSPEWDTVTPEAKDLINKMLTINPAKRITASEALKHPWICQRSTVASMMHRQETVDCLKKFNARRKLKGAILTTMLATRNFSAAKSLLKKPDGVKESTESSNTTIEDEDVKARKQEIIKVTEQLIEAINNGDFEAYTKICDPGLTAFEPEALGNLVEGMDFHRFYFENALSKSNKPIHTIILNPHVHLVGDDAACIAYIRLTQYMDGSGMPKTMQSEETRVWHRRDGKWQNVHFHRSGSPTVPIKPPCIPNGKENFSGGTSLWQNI

[7] = target: Aurora kinase B (Homo sapiens) (UniProt Q96GD4); experiment: AURKB SGC Tm panel (DSF); conditions: for ΔTm: Compound concentration 10.0 uM
Aurora kinase B (Homo sapiens), sequence (Q96GD4 whole entry): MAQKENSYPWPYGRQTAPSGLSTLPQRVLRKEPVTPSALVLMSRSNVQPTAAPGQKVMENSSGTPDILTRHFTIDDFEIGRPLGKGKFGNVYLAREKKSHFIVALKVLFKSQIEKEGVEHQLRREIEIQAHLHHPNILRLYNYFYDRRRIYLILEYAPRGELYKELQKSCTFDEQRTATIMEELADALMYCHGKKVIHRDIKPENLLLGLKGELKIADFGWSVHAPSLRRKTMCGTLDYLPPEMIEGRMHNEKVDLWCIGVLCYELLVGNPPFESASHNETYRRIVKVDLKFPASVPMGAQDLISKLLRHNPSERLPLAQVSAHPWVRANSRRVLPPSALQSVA

[8] = target: T2, Aurora kinase A (Homo sapiens) (UniProt O14965); experiment: STK6 SGC Tm panel (DSF); conditions: for ΔTm: Compound concentration 10.0 uM
T2 sequence (whole entry): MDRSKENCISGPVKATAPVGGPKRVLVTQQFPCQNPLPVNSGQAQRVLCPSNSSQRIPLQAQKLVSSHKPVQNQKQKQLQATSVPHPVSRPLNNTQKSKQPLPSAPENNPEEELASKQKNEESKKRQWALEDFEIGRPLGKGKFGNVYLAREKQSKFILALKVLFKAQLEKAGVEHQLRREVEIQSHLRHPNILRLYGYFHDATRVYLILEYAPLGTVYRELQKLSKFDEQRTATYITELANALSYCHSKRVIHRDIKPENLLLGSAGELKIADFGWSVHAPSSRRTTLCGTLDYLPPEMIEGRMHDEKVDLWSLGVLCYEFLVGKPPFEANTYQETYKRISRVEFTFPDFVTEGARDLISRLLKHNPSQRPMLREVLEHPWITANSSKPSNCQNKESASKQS

[9] = target: STE20-like serine/threonine-protein kinase (Homo sapiens) (UniProt Q9H2G2); experiment: SLK SGC Tm panel (DSF); conditions: for ΔTm: Compound concentration 10.0 uM
STE20-like serine/threonine-protein kinase (Homo sapiens), sequence (Q9H2G2 whole entry, looked up): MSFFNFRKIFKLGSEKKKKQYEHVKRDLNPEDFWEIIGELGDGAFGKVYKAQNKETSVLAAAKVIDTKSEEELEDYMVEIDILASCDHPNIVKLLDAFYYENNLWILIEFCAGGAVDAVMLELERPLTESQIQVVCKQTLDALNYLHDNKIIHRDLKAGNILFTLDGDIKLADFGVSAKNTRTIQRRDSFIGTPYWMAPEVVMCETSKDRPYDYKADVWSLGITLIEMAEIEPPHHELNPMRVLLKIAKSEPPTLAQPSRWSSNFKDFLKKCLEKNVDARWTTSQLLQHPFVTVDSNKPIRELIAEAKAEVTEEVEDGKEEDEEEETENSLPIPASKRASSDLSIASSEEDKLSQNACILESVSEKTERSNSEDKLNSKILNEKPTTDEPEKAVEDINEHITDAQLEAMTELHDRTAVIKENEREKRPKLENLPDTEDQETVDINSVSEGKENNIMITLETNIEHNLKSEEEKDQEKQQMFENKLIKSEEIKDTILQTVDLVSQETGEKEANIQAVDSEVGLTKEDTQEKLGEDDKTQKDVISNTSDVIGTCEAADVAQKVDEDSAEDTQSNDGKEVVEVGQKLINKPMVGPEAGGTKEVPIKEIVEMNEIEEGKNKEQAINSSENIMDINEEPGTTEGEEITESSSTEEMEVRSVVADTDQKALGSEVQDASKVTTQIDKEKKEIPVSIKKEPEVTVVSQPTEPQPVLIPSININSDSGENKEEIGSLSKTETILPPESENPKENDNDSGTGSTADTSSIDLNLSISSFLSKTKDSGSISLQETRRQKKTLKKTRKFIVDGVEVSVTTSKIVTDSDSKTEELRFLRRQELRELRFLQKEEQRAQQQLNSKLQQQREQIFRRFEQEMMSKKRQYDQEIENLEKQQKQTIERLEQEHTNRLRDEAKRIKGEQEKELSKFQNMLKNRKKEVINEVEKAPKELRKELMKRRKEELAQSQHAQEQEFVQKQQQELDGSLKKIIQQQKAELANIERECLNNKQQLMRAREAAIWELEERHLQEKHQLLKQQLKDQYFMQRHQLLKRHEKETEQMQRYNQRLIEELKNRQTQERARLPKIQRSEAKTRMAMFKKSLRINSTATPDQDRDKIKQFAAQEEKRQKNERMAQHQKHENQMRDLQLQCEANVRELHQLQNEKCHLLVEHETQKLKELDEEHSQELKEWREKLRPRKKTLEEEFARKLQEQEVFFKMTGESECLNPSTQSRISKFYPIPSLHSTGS

[10] = target: T3, Serine/threonine-protein kinase 17B (Homo sapiens) (UniProt O94768); experiment: STK17B SGC Tm panel (DSF); conditions: for ΔTm: Compound concentration 10.0 uM
T3 sequence (whole entry): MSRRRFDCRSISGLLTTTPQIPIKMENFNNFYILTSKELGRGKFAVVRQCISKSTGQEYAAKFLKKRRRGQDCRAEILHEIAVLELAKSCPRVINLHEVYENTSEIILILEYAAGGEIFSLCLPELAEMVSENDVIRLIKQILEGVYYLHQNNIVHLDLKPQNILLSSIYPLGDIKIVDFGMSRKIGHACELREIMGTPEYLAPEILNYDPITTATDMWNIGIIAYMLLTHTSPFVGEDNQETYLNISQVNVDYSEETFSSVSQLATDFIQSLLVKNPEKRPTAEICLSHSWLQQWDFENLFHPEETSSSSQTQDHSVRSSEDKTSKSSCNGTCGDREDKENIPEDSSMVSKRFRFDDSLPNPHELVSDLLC

[11] = target: Casein kinase I isoform delta (Homo sapiens) (UniProt P48730); experiment: CSNK1D SGC Tm panel (DSF); conditions: for ΔTm: Compound concentration 10.0 uM
Casein kinase I isoform delta (Homo sapiens), sequence (P48730 whole entry, looked up, canonical isoform): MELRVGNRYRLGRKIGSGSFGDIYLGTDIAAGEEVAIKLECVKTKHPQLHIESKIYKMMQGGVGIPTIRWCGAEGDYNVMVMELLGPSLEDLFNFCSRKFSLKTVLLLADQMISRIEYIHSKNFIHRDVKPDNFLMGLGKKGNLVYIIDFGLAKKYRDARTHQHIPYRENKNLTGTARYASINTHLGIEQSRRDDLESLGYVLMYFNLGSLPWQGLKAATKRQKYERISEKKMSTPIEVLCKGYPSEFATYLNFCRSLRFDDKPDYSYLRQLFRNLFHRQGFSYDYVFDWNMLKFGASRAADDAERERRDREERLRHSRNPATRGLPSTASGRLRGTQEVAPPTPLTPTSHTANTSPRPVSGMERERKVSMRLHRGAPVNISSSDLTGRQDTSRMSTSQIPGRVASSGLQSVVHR

[12] = target: Alpha-2B adrenergic receptor (Homo sapiens) (UniProt P18089); conditions: Compound concentration 10.0 uM
[13] = target: Serine/threonine-protein kinase OSR1 (Homo sapiens) (UniProt O95747); experiment: OXSR1 SGC Tm panel (DSF); conditions: for ΔTm: Compound concentration 10.0 uM
Serine/threonine-protein kinase OSR1 (Homo sapiens), sequence (O95747 2-527 limits assumed): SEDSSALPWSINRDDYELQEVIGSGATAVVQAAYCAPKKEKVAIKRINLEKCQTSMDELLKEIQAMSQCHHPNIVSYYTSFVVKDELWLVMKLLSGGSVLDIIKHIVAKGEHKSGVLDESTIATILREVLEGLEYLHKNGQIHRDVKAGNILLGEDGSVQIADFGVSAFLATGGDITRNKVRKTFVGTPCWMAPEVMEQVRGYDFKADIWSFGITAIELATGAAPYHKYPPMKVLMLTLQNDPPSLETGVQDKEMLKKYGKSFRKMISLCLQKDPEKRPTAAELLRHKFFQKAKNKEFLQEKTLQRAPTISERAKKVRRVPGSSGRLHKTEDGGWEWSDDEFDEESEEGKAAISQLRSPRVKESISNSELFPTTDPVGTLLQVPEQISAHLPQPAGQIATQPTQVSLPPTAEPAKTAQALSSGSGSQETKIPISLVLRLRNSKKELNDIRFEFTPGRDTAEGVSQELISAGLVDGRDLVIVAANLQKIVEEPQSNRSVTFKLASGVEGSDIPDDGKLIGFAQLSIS

[14] = target: Histamine H3 receptor (Homo sapiens) (UniProt Q9Y5N1); conditions: Compound concentration 10.0 uM
Histamine H3 receptor (Homo sapiens), sequence (Q9Y5N1 whole entry): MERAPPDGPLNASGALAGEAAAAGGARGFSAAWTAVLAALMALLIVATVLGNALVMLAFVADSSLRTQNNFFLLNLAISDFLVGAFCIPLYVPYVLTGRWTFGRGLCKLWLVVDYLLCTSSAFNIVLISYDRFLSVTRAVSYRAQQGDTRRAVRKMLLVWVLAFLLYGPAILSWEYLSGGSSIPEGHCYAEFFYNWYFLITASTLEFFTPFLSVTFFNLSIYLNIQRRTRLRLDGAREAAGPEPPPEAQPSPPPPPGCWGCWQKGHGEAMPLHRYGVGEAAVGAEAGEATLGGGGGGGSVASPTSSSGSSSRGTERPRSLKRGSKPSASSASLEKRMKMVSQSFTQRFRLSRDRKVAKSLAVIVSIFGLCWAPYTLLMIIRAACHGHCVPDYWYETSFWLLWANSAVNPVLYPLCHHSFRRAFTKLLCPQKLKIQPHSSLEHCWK

[15] = target: Sodium-dependent dopamine transporter (Homo sapiens, UniProt Q01959); experiment: GPCRScan assay: inhibition of DAT; design: radioligand conc. used [nm] 3.6 – 16.0, parental cells stable HEK
[16] = target: T4, Myotonin-protein kinase (Homo sapiens) (UniProt Q09013); experiment: DMPK SGC Tm panel (DSF); conditions: for ΔTm: Compound concentration 10.0 uM
T4 sequence (whole entry): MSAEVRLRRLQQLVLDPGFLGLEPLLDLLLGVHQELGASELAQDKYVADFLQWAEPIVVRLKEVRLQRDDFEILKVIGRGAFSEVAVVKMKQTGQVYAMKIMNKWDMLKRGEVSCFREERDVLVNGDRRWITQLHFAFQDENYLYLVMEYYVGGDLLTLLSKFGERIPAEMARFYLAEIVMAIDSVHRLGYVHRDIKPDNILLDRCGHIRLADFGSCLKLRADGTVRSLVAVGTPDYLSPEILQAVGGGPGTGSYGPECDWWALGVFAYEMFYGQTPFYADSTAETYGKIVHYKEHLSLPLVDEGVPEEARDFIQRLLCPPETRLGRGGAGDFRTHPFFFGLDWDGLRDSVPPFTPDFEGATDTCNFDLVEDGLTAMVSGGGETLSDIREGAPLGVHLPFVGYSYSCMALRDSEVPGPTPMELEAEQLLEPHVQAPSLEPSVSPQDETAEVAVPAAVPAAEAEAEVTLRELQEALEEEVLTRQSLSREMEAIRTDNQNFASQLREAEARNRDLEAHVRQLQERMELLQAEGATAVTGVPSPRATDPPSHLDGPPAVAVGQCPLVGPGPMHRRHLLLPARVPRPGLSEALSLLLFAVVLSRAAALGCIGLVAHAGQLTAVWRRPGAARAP

G protein-coupled receptor kinase 5 (Homo sapiens), sequence (P34947 whole entry, looked up): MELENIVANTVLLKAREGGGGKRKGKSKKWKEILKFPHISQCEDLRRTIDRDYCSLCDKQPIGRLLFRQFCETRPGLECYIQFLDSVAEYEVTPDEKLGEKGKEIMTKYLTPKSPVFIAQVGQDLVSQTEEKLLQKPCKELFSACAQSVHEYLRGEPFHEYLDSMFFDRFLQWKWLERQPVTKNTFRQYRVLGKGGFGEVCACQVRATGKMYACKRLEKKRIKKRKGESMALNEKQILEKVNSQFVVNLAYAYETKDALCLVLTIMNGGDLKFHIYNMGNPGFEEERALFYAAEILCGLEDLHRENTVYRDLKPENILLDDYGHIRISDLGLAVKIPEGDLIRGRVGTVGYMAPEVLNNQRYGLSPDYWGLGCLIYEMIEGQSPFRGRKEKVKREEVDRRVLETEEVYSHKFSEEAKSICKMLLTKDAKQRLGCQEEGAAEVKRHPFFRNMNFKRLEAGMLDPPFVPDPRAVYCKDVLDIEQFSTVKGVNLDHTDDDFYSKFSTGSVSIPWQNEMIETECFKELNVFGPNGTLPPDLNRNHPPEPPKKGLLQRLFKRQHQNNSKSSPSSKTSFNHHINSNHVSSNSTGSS

Row | Compound | delta Tm Staurosporine positive control [1] | ΔTm [1] | delta Tm Staurosporine positive control [2] | ΔTm [2] | delta Tm Staurosporine positive control [3] | ΔTm [3] | delta Tm Staurosporine positive control [4] | ΔTm [4] | delta Tm Staurosporine positive control [5] | ΔTm [5] | delta Tm Staurosporine positive control [6] | ΔTm [6] | delta Tm Staurosporine positive control [7] | ΔTm [7] | delta Tm Staurosporine positive control [8] | ΔTm [8] | delta Tm Staurosporine positive control [9] | ΔTm [9] | delta Tm Staurosporine positive control [10] | ΔTm [10] | other results
1 | C[C@H](NC(=O)c1cn(C2(C#N)CC2)cn1)C(=O)Nc1nc(-c2cccc(-c3ccn(C)n3)c2)cs1 | 5.65 | -0.166 | 6.82 | 0.226 | 6.89 | 1.22 | 8.26 | 0.15 | 6.46 | 1.82 | 16 | 0.121 | 13.6 | 0.802 | 16.5 | 0.205 | 12.2 | 0.23 | 10 | -12.2 | delta Tm Staurosporine positive control [11]: 1.43; ΔTm [11]: 0.845; inhibition [12]: 14.6%; delta Tm Staurosporine positive control [13]: 5.06; ΔTm [13]: 1.31; inhibition [14]: 0.34%; Ki [15]: > 10 µM; pKi [15]: < 5; delta Tm Staurosporine positive control [16]: 9.28; ΔTm [16]: -0.281
2 | COC[C@H](NC(=O)c1ccn(S(C)(=O)=O)c1)C(=O)Nc1nc(-c2cccc(-c3ccn(C)n3)c2)cs1 | 5.65 | -0.0579 | 6.82 | 0.544 | 6.89 | 1.06 | 8.26 | 0.39 | 6.46 | 1.45 | 16 | 0.157 | 13.6 | 1.29 | 16.5 | 0.943 | 12.2 | 1.33 | 10 | -0.114 | delta Tm Staurosporine positive control [11]: 1.43; ΔTm [11]: 0.637; inhibition [12]: 6.88%; delta Tm Staurosporine positive control [13]: 5.06; ΔTm [13]: -0.0355; inhibition [14]: 7.45%; Ki [15]: > 10 µM; pKi [15]: < 5; delta Tm Staurosporine positive control [16]: 9.28; ΔTm [16]: 0.564

— ChEMBL document CHEMBL5303766, “Data for DCP probe FHT-2344” (2022)
